In brackets after ≈: the same amount, converted by molar mass. Where a SMILES comes first, the peptide text is derived from it. Bridges are numbered along the chain shown (N, C = ends). Roman numbers before positions name the chains, in order. Where no end group is shown, it is not given here. [ ]: non-standard residue; d: D form. NMeL = CN[C@@H](CC(C)C)C(=O)O; Orn = NCCC[C@H](N)C(=O)O; Dab = NCC[C@H](N)C(=O)O
Key:
[1] = test system: E. coli D31; format: cell-based, Escherichia coli; conditions: D31, 20 h
Method in brief: (§1)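 Read-out: A595 after 20 hrs at 37° C. Bacteria from overnight NB culture, 5×10^6 CFU/mL in 1% TSB, mixed with twofold peptide dilutions (final 125 μg/mL–60 ng/mL). Triplicate wells; water negative control.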

[2] = in vitro; format: in vitro ADME, mouse; conditions: 37° C.
Method: Serum stability studies were carried out in duplicate as described by Hoffmann et al.. Briefly, 28 μL of an aqueous peptide or peptidomimetics solution (0.5 mg/mL) was added to 0.2 mL freshly pooled 25% mouse serum (Sigma-Aldrich GmbH, Taufkirchen, Germany) in water. The mixtures were incubated at 37° C. under gentle stirring. The proteins were precipitated with 40 μL of 15% aqueous TCA after incubation times of 0, 0.5, 1, 2, 4 and 6 h at 0° C. for 20 min before centrifuged (13500×G) at 4° C. for 5 min. The supernatants of all samples (240 μL) were neutralized with 1 mol/L aqueous NaOH and immediately stored at −20° C. The supernatants were analyzed by RP-HPLC using a linear acetonitrile gradient as described above with 0.1% TFA as ion pair reagent. Collected fractions of the main peaks were further analyzed by tandem mass spectrometry (MALDI-TOF/TOF-MS, 4700 Proteomics Analyzer, Applied Biosystems GmbH, Weiterstadt, Germany) in positive ion reflector mode using α-cyanohydroxycinnamic acid (50% CH3CN in 0.1% aqueous TFA) as matrix to identify the degradation products of the peptides and peptidomimetics, i.e., metabolites, at the different time points. Serum control samples consisted of 200 μL of pooled 25% mouse serum in water, which were also precipitated with 40 μL 15% aqueous TCA, as described before. Peptide reference samples consisted of 28 μL of the peptide stock solution diluted in 0.2 mL water and 40 μL of 15% aqueous trichloroacetic acid (TCA).

[3] = test system: S. enterica subsp. Enterica serovar. typhi G10215 ATCC 700408; format: cell-based, Salmonella enterica; conditions: ATCC 700408, 20 h
Method in brief: as §1

[4] = test system: S. typhi S5; format: cell-based, Salmonella typhi; conditions: S5, 20 h
Method in brief: as §1

[5] = test system: R. radiobatter ATCC 15955; experiment: Growth inhibition assay (MIC); format: cell-based, Rhizobium radiobacter; conditions: multidrug resistant strain; 1% TSB, 37° C., 20 hrs
Method in brief: as §1

[6] = test system: B. subtilis 347; format: cell-based, Bactillus subtillis; conditions: 347, 20 h
Method in brief: (§2)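 Peptides were serially diluted two-fold in 1% TSB, giving final concentrations from 125 μg/mL down to 60 ng/mL, and mixed with overnight bacterial culture adjusted to 5×10^6 CFU/mL in 1% TSB. After 20 hrs at 37 °C, growth was read as absorbance at 595 nm, in triplicate, with sterile water as negative control.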

[7] = test system: M. luteus ATCC 10240; format: cell-based, Micrococcus luteus; conditions: ATCC 10240, 20 h
Method in brief: as §2

[8] = test system: E. coli 1103; format: cell-based, Escherichia coli; conditions: 1103, 20 h
Method in brief: as §2

[9] = test system: E. coli 10233; format: cell-based, Escherichia coli; conditions: 10233, 20 h
Method in brief: as §2

[10] = test system: E. coli BL 21 AI; experiment: Growth inhibition assay (MIC); format: cell-based, Escherichia coli; conditions: 1% TSB, 37° C., 20 hrs
Method in brief: as §2

[11] = test system: E. coli 45849; experiment: Growth inhibition assay (MIC); format: cell-based, Escherichia coli; conditions: multidrug resistant strain; 1% TSB, 37° C., 20 hrs
Method in brief: as §1

[12] = test system: K. Pneumonia 123132; experiment: Growth inhibition assay (MIC); format: cell-based, Klebsiella pneumoniae; conditions: multidrug resistant strain; 1% TSB, 37° C., 20 hrs
Method in brief: as §1

[13] = test system: K. Pneumonia K6, ATCC 700603; experiment: Growth inhibition assay (MIC); format: cell-based, Klebsiella pneumoniae; conditions: multidrug resistant strain; 1% TSB, 37° C., 20 hrs
Method in brief: as §1

[14] = test system: K. pneumonia 681; format: cell-based, Klebsiella pneumoniae; conditions: 20 h
Method in brief: as §2

[15] = test system: E. coli DC 2; experiment: Growth inhibition assay (MIC); format: cell-based, Escherichia coli; conditions: 1% TSB, 37° C., 20 hrs
Method in brief: as §2

Row | Molecule | MIC E. coli D31 [1] | Half-life time ([2]; 25% aqueous mouse serum) | half-life at 0.061 mg/mL ([2]; mouse, 25% aqueous serum, read-out: half-life) | MIC S. enterica subsp. Enterica serovar. typhi G10215 ATCC 700408 [3] | MIC S. typhi S5 [4] | MIC R. radiobatter ATCC 15955 [5] | MIC B. subtilis 347 [6] | MIC M. luteus ATCC 10240 [7] | MIC E. coli 1103 [8] | MIC E. coli 10233 [9] | MIC E. coli BL 21 AI [10] | MIC E. coli 45849 [11] | MIC K. Pneumonia 123132 [12] | MIC K. Pneumonia K6, ATCC 700603 [13] | MIC K. pneumonia 681 [14] | half-life ([2]; 25% aqueous mouse serum, read-out: Half-life time) | MIC E. coli DC 2 [15]
1 | CC[C@H](C)[C@H](NC(=O)[C@H](Cc1ccc(O)cc1)NC(=O)[C@@H](NC(=O)[C@@H]1CCCN1C(=O)[C@H](CCCNC(=N)N)NC(=O)[C@H](CC(N)=O)NC(=O)[C@H](CC(N)=O)NC(=O)[C@H](CCCN)NC(C)=O)C(C)C)C(=O)N1CCC[C@H]1C(=O)N[C@@H](CCC(N)=O)C(=O)N1CCC[C@H]1C(=O)N[C@@H](CCCNC(=N)N)C(=O)N1CCC[C@H]1C(=O)N1CCC[C@H]1C(=O)N[C@@H](Cc1c[nH]cn1)C(=O)N1CCC[C@H]1C(=O)N[C@@H](CCCNC(=N)N)C(=O)N(C)[C@@H](CC(C)C)C(N)=O [compound 32] (Ac-[Orn]NNRPVYIPQPRPPHPR[NMeL]-NH2) | 64 µg/mL (≈ 28.8 µM) | >6 h | > 6 h | 8 µg/mL (≈ 3.6 µM) | 32 µg/mL (≈ 14.4 µM) | 1.3 µg/mL (≈ 0.585 µM) | >125 µg/mL | 7.81 µg/mL (≈ 3.52 µM) | 31.4 µg/mL (≈ 14.1 µM) | 31.25 µg/mL (≈ 14.1 µM) | 15.63 µg/mL (≈ 7.04 µM) | 8 µg/mL (≈ 3.6 µM) | >64 µg/mL | >128 µg/mL | >125 µg/mL | – | –
2 | CC[C@H](C)[C@H](NC(=O)[C@H](Cc1ccc(O)cc1)NC(=O)[C@@H](NC(=O)[C@@H]1CCCN1C(=O)[C@H](CCCNC(=N)N)NC(=O)[C@H](CC(N)=O)NC(=O)[C@H](CC(N)=O)NC(=O)[C@H](CCCN)NC(C)=O)C(C)C)C(=O)N1CCC[C@H]1C(=O)N[C@@H](CCCNC(=N)N)C(=O)N1CCC[C@H]1C(=O)N[C@@H](CCCNC(=N)N)C(=O)N1CCC[C@H]1C(=O)N1CCC[C@H]1C(=O)N[C@@H](Cc1c[nH]cn1)C(=O)N1CCC[C@H]1C(=O)N[C@@H](CCCNC(=N)N)C(=O)N[C@@H](CC(C)C)C(=O)NCC[C@H](NC(=O)[C@H](CC(C)C)NC(=O)[C@H](CCCNC(=N)N)NC(=O)[C@@H]1CCCN1C(=O)[C@H](Cc1c[nH]cn1)NC(=O)[C@@H]1CCCN1C(=O)[C@@H]1CCCN1C(=O)[C@H](CCCNC(=N)N)NC(=O)[C@@H]1CCCN1C(=O)[C@H](CCCNC(=N)N)NC(=O)[C@@H]1CCCN1C(=O)[C@@H](NC(=O)[C@H](Cc1ccc(O)cc1)NC(=O)[C@@H](NC(=O)[C@@H]1CCCN1C(=O)[C@H](CCCNC(=N)N)NC(=O)[C@H](CC(N)=O)NC(=O)[C@H](CC(N)=O)NC(=O)[C@H](CCCN)NC(C)=O)C(C)C)[C@@H](C)CC)C(=O)O [compound 83] (I: Ac-[Orn]NNRPVYIPRPRPPHPRL[Dab]-OH / II: Ac-[Orn]NNRPVYIPRPRPPHPRL; amide I:19-II:C) | 2 µg/mL (≈ 0.439 µM) | – | – | 4 µg/mL (≈ 0.878 µM) | 4 µg/mL (≈ 0.878 µM) | – | 15.6 µg/mL (≈ 3.43 µM) | 1.95 µg/mL (≈ 0.428 µM) | – | 31.25 µg/mL (≈ 6.86 µM) | 1.95 µg/mL (≈ 0.428 µM) | 8 µg/mL (≈ 1.76 µM) | 8 µg/mL (≈ 1.76 µM) | 8 µg/mL (≈ 1.76 µM) | 125 µg/mL (≈ 27.5 µM) | 0.25 h | –
3 | GNNRPVYIPRPRPPHPRI-NH2 [compound 14] | 64 µg/mL | – | – | 2 µg/mL | – | – | – | 0.98 µg/mL | 0.98 µg/mL | – | 0.49 µg/mL | – | – | 8 µg/mL | 15.62 µg/mL | – | 7.81 µg/mL
